Measurements from patent publication US20100292185A1, “BETA-LACTAMASE INHIBITORS” (priority 2009, published 2010).

What was measured:
KPC-2 β-lactamase = molecular target: T1, KPC-2 β-lactamase (Klebsiella pneumoniae, UniProt Q9F663); experiment: β-lactamase enzyme inhibition assay (nitrocefin substrate), KPC-2; assay type: biochemical; details: nitrocefin 100 μM, 37° C., PBS pH 7.0; read-out: KPC-2 IC50
T1 construct: expressed as native untagged proteins; made in house; host or cells: E. coli BL21(DE3)
Outline: (§1)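 IC50 values reflect a 50% drop in the initial rate of nitrocefin (100 μM final) hydrolysis, monitored at 486 nm. Inhibitor was preincubated with the purified native enzyme for 10 min at 37 °C in PBS pH 7.0.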

[1] = system: P. aeruginosa expressing the Class B metallo β-lactamase VIM-2; experiment: In vitro antibacterial assay of β-lactamase inhibition (broth microdilution MIC), P. aeruginosa VIM-2; assay type: cell-based; details: in presence of Ceftazidime 16 μg/mL (Examples 1-56)
Outline: (§2)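 MIC read by eye after 16–20 h at 37° C, with CLSI-standard inocula of strains grown 3–5 h in CAMHB containing 50 μg/mL ampicillin. Compounds tested in final 2-fold dilutions from 8 to 0.015 μg/mL together with a β-lactam antibiotic.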

OXA-23 β-lactamase = molecular target: T2, OXA-23 β-lactamase (Acinetobacter baumannii, UniProt Q9L4P2); experiment: β-lactamase enzyme inhibition assay (nitrocefin substrate), OXA-23 crude extract; assay type: biochemical; details: nitrocefin 100 μM, 37° C., PBS pH 7.0; read-out: OXA-23 IC50
T2 construct: crude β-lactamase extracts were prepared from 20 ml overnight cultures; endogenous in cells; host or cells: Acinetobacter baumannii cells containing OXA-23 (crude freeze-thaw extract)
Outline: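 Crude enzyme came from freeze-thaw extracts of mid-log OXA-23-carrying A. baumannii grown in MH-II broth at 37° C. Inhibitors (100–0.005 μM in PBS pH 7.0) were preincubated with the enzyme for 10 min at 37° C, then 100 μM nitrocefin (final) was added and read kinetically at 486 nm for 10 min. IC50 was taken from initial hydrolysis rates relative to uninhibited controls.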

SHV-5 β-lactamase = molecular target: T3, SHV-5 β-lactamase (Klebsiella pneumoniae, UniProt P0A3M1); experiment: β-lactamase enzyme inhibition assay (nitrocefin substrate), SHV-5; assay type: biochemical; details: nitrocefin 100 μM, 37° C., PBS pH 7.0; read-out: SHV-5 IC50
T3 construct: expressed as native untagged proteins; made in house; host or cells: E. coli BL21(DE3)
Outline: as §1

CTX-M15 β-lactamase = molecular target: T4, CTX-M15 β-lactamase (Escherichia coli, UniProt Q9EXV5); experiment: β-lactamase enzyme inhibition assay (nitrocefin substrate), CTXM-15; assay type: biochemical; details: nitrocefin 100 μM, 37° C., PBS pH 7.0; read-out: CTXM-15 IC50
T4 construct: expressed as native untagged proteins; made in house; host or cells: E. coli BL21(DE3)
Outline: as §1

[2] = system: K. pneumoniae expressing the Class A Extended Spectrum Beta-Lactamase (ESBL) CTX-M-15; experiment: In vitro antibacterial assay of β-lactamase inhibition (broth microdilution MIC), K. pneumoniae CTX-M-15; assay type: cell-based; details: in presence of Ceftazidime 8 μg/ml (Examples 1-56)
Outline: as §2

[3] = system: E. coli expressing the Class A ESBL SHV-5; experiment: In vitro antibacterial assay of β-lactamase inhibition (broth microdilution MIC), E. coli SHV-5; assay type: cell-based; details: in presence of Ceftazidime 8 μg/ml (Examples 1-56)
Outline: as §2

[4] = system: E. cloacae expressing the Class C P99+; experiment: In vitro antibacterial assay of β-lactamase inhibition (broth microdilution MIC), E. cloacae P99+; assay type: cell-based; details: in presence of Ceftazidime 8 μg/ml (Examples 1-56)
Outline: as §2

p99 AmpC β-lactamase = molecular target: T5, p99 AmpC β-lactamase (Enterobacter cloacae, UniProt P05364); experiment: β-lactamase enzyme inhibition assay (nitrocefin substrate), P99 AmpC; assay type: biochemical; details: nitrocefin 100 μM, 37° C., PBS pH 7.0; read-out: P99 AmpC IC50
T5 construct: expressed as native untagged proteins; made in house; host or cells: E. coli BL21(DE3)
Outline: as §1

[5] = molecular target: T6, VIM-2 metallo β-lactamase (Pseudomonas aeruginosa, UniProt Q9K2N0); experiment: β-lactamase enzyme inhibition assay (nitrocefin substrate), VIM-2; assay type: biochemical; details: nitrocefin 100 μM, 37° C., PBS pH 7.0; read-out: VIM-2 IC50
T6 construct: made in house
Outline: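 VIM-2 was expressed untagged in E. coli BL21(DE3) and purified by two Q sepharose anion-exchange runs plus gel filtration to >90% purity. Compounds at 100–0.005 μM in PBS pH 7.0 were preincubated with enzyme for 10 min at 37° C, then nitrocefin was added at 100 μM final. Hydrolysis was followed kinetically at 486 nm for 10 min; IC50 is the concentration halving the initial rate relative to no-inhibitor wells.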

[6] = system: K. pneumoniae expressing the Class A carbapenemase KPC-2; experiment: microbe, parasite or virus in culture; assay type: cell-based; details: in presence of Ceftazidime 8 μg/ml (Examples 1-56)
Outline: as §2

T2 sequence (Q9L4P2 18-273): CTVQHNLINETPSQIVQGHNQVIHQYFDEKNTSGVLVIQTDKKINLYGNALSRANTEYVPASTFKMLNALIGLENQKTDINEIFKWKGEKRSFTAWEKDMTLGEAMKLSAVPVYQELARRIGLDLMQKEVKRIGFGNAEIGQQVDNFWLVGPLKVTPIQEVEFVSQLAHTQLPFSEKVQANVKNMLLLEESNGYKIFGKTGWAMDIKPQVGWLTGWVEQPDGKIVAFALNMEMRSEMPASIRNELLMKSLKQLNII
T4 sequence (Q9EXV5 entry or part of it): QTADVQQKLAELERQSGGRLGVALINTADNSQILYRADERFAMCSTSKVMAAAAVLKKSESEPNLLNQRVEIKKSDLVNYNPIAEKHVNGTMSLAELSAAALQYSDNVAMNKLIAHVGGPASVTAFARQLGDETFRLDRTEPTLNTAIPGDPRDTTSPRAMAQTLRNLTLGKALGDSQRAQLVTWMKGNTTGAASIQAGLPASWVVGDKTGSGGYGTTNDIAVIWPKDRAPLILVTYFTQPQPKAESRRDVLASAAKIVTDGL
T1 sequence (Q9F663 25-293 limits assumed): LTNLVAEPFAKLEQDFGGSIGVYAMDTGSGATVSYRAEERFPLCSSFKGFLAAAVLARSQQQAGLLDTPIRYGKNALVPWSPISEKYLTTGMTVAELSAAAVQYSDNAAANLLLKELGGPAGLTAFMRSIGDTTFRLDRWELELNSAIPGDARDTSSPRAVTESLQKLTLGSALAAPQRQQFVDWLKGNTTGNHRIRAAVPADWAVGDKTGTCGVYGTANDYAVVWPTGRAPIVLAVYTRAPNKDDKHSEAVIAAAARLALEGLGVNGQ
T3 sequence (P0A3M1 22-286): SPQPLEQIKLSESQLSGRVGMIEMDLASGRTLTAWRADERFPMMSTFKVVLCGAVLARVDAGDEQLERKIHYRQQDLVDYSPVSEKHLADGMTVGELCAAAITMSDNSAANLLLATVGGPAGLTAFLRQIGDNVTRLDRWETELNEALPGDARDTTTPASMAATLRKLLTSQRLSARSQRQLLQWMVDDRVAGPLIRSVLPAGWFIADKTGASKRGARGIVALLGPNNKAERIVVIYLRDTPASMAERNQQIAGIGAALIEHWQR
T5 sequence (P05364 21-381): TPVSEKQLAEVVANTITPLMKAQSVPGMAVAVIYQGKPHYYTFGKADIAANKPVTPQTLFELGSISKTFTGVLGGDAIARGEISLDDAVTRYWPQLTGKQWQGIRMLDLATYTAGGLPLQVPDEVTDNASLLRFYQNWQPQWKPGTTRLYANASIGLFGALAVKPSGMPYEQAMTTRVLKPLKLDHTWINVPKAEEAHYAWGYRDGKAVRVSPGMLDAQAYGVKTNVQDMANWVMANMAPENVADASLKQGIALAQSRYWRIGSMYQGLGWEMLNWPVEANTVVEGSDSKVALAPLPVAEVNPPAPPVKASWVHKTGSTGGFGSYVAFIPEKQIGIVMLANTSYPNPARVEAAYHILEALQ

| Substance | IC50 (KPC-2 β-lactamase) [nM] | MIC of example compound, P. aeruginosa VIM-2 [1] [mg/L] | IC50 (OXA-23 β-lactamase) [nM] | IC50 (SHV-5 β-lactamase) [nM] | IC50 (CTX-M15 β-lactamase) [nM] | MIC of example compound, K. pneumoniae CTX-M-15 [2] [mg/L] | MIC of example compound, E. coli SHV-5 [3] [mg/L] | MIC of example compound, E. cloacae P99+ [4] [mg/L] | IC50 (p99 AmpC β-lactamase) [nM] | IC50 [5] [nM] | MIC of example compound, K. pneumoniae KPC-2 [6] [mg/L] |
| --- | --- | --- | --- | --- | --- | --- | --- | --- | --- | --- | --- |
| (1R)-[3-{(2-hydroxy-ethylamino)-methyl}-benzoylamino]-(3-carboxy-2-hydroxy)benzyl-methylboronic acid formate [Example 43] | 70 | >8 | 38 | 4 | 12 | 0.5 | 2 | 0.5 | 9 | 184 | <0.015 |
| (2R)-3-[(2-[(2-chloro-pyridin-4-yl-acetyl)-amino]-2-borono-ethyl]-2-hydroxy-benzoic acid hydrochloride [Example 47] | 2 | >8 | 132 | 1 | 2 | 0.25 | 0.25 | 1 | 5 | > 1000 | 0.03 |
